The pIC50 is the negative decadic logarithm of the IC50, by convention in mol/L. A higher pIC50 goes with a small IC50.

For data set [1], the target named is T1, Catechol-O-Methyl-Transferase (COMT) (Rattus norvegicus, UniProt P22734).
T1 construct: Man inkubiert Rattenleber-Homogenate in Gegenwart eines geeigneten Substrates; from tissue; host or cells: rat liver homogenate
T1 sequence (P22734 1-264): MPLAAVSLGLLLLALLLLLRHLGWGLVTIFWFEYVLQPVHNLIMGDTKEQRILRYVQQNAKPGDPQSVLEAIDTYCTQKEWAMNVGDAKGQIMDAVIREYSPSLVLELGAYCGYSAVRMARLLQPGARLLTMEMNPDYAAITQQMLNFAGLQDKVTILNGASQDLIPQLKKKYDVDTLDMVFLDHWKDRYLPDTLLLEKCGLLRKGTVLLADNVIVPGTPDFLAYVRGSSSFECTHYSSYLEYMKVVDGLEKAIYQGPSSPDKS
The data set can be described thus: COMT inhibition in rat liver homogenates. The data set is classed as biochemical, Ratten. The text has this:
Diese Wirkung kann wie folgt quantitativ erfasst werden: Man inkubiert Rattenleber-Homogenate in Gegenwart eines geeigneten Substrates wie in J. Neurochem. […] In einer zweiten Versuchsreihe wird die Inkubation in Gegenwart einer Verbindung der Formel Ia durchgeführt. Aus der Differenz der ermittelten COMT-Aktivitäten lässt sich dann die IC₅₀ berechnen. Die IC₅₀ wird in nMol/l angegeben und ist diejenige Konzentration in der Inkubationsmischung, welche notwendig ist, um die COMT-Aktivität um 50% herabzusetzen.

A short description of data set [2]: Acute toxicity after a single oral administration to mice. As to conditions: mouse, in vivo, p.o., read-out: DL₅₀.

pIC50: −log10 of the molar value.

The compound `O=C(c1cc(O)c(O)c([N+](=O)[O-])c1)c1ccccc1F` [2'-Fluor-3,4-dihydroxy-5-nitrobenzophenon] showed a pIC50 in data set [1] of 7.38. Further, the LD50 in data set [2] fell in the range of 312 to 625 mg/kg.
In turn, `CCCCOC(=O)c1cc(O)c(O)c([N+](=O)[O-])c1` [3,4-Dihydroxy-5-nitrobenzoesäure-n-butylester] showed a pIC50 in data set [1] of 7.70. Also, the LD50 in data set [2] was 312 to 625 mg/kg.
In data set [1], `O=C(c1ccccc1)c1cc(O)c(O)c([N+](=O)[O-])c1` [3,4-Dihydroxy-5-nitrobenzophenon] showed a negative-log IC50 (pIC50) of 7.32. The LD50 in data set [2] was 500 to 1000 mg/kg.
The corresponding values for `O=C(c1cc(O)c(O)c([N+](=O)[O-])c1)c1ccccn1` [3,4-Dihydroxy-5-nitrophenyl-2-pyridylketon] are 7.27 and 1250 to 2500 mg/kg.
The corresponding values for `O=C(c1cccnc1)c1cc(O)c(O)c([N+](=O)[O-])c1` [3,4-Dihydroxy-5-nitrophenyl-3-pyridylketon] are 7.33 and 1000 to 2000 mg/kg.
The corresponding values for `O=C(c1ccncc1)c1cc(O)c(O)c([N+](=O)[O-])c1` [3,4-Dihydroxy-5-nitrophenyl-4-pyridylketon] are 7.17 and 1000 to 2000 mg/kg.
As for `CCOC(=O)C(=O)c1cc(O)c(O)c([N+](=O)[O-])c1` [3,4-Dihydroxy-5-nitrophenylglyoxylsäureäthylester], in data set [1], the negative logarithm of the IC50 (pIC50) is 7.32. In addition, the LD50 in data set [2] fell in the range of 1250 to 2500 mg/kg.
In data set [1], `CCCCOC(=O)C=Cc1cc(O)c(O)c([N+](=O)[O-])c1` [3,4-Dihydroxy-5-nitrozimtsäure-n-butylester] had a pIC50 of 7.59. For the same compound, in data set [2], the LD50 is 2500 to 5000 mg/kg.
As for `O=[N+]([O-])c1cc(O)c(O)c([N+](=O)[O-])c1` [3,5-Dinitropyrocatechol], the LD50 in data set [2] lay within 500 to 1000 mg/kg.

Values taken from patent publication EP0237929B1, “3,5-Disubstituted pyrocatechol derivatives” (F. HOFFMANN-LA ROCHE AG, priority 1986, dated 1987).
